Test results published in ChEMBL document CHEMBL3046041, “3D QSAR kNN-MFA studies on thiouracil derivatives as hepatitis C virus inhibitors” (Med Chem Res, 2011).

Biological target: RNA-directed RNA polymerase (Hepacivirus hominis, UniProt O39930)
Assay: Inhibition of Hepatitis C virus NS5B RNA-dependent RNA polymerase

RNA-directed RNA polymerase, sequence (O39930 whole entry): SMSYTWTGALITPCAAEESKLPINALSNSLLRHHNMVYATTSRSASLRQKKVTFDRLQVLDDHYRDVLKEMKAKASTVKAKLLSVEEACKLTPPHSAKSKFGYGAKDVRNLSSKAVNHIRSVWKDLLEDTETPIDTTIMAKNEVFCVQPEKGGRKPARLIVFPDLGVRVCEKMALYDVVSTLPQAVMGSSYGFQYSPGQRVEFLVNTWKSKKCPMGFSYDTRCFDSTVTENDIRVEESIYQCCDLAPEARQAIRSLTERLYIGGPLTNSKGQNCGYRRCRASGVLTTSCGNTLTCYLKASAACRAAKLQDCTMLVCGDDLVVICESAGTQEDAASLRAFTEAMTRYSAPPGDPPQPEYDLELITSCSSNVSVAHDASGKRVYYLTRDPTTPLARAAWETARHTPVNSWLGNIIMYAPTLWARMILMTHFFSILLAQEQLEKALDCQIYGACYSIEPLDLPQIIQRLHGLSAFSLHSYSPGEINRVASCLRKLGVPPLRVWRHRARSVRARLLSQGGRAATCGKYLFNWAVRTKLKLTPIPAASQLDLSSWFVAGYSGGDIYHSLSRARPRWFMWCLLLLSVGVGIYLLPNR

IC50 (read-out: IC50) | IC50 (read-out: pIC50 (converted)) | SMILES
57 µM |  | Cc1cccc(CSc2nc(-c3ccc(F)cc3F)c(C#N)c(=O)[nH]2)c1
13 µM |  | N#Cc1c(-c2ccc(F)cc2F)nc(SCc2ccccc2Br)[nH]c1=O
9.9 µM |  | CC(C)c1ccc(-c2nc(SCc3ccc(OC(F)(F)F)cc3)[nH]c(=O)c2C#N)cc1
50 µM |  | N#Cc1c(-c2ccc(Br)cc2)nc(SCC2CCCCO2)[nH]c1=O (stereo unspecified)
15 µM |  | COc1cc(CSc2nc(-c3cc(F)cc(F)c3)c(C#N)c(=O)[nH]2)cc(OC)c1
11 µM |  | N#Cc1c(-c2ccc(Cl)cc2Cl)nc(SCc2ccc(OC(F)(F)F)cc2)[nH]c1=O
14 µM |  | N#Cc1c(-c2ccc(Br)cc2)nc(SCc2cccc([N+](=O)[O-])c2)[nH]c1=O
7.1 µM | 7.24 µM | N#Cc1c(-c2ccc(Br)cc2)nc(SCc2ccccc2C(F)(F)F)[nH]c1=O
25 µM |  | COc1cc(CSc2nc(-c3ccccc3C)c(C#N)c(=O)[nH]2)cc(OC)c1
14 µM |  | Cc1cccc(CSc2nc(-c3cccc(C(F)(F)F)c3)c(C#N)c(=O)[nH]2)c1
33 µM |  | Cc1cccc(CSc2nc(-c3ccc(Cl)cc3Cl)c(C#N)c(=O)[nH]2)c1
25 µM |  | COc1cc(CSc2nc(-c3ccc(C(C)C)cc3)c(C#N)c(=O)[nH]2)cc(OC)c1
8.7 µM |  | N#Cc1c(-c2ccc(Br)cc2)nc(SCc2ccc(OC(F)(F)F)cc2)[nH]c1=O
21 µM |  | N#Cc1c(-c2ccccc2C(F)(F)F)nc(SCc2ccccc2Br)[nH]c1=O
17 µM |  | CC(C)c1ccc(-c2nc(SCC3CCCCO3)[nH]c(=O)c2C#N)cc1 (stereo unspecified)
13 µM |  | N#Cc1c(-c2cccc(C(F)(F)F)c2)nc(SCc2cccc([N+](=O)[O-])c2)[nH]c1=O
20 µM |  | Cc1cccc(-c2nc(SCc3cccc([N+](=O)[O-])c3)[nH]c(=O)c2C#N)c1
34 µM |  | COc1cc(CSc2nc(-c3cc(Cl)cc(Cl)c3)c(C#N)c(=O)[nH]2)cc(OC)c1
9.2 µM |  | N#Cc1c(-c2ccccc2C(F)(F)F)nc(SCc2ccc(OC(F)(F)F)cc2)[nH]c1=O
32 µM |  | N#Cc1c(-c2ccc(F)cc2F)nc(SCc2cccc([N+](=O)[O-])c2)[nH]c1=O
27 µM |  | Cc1cccc(CSc2nc(-c3cc(F)cc(F)c3)c(C#N)c(=O)[nH]2)c1
30 µM |  | COc1cc(CSc2nc(-c3cccc(C)c3)c(C#N)c(=O)[nH]2)cc(OC)c1
12 µM |  | Cc1cccc(CSc2nc(-c3ccc(C(C)C)cc3)c(C#N)c(=O)[nH]2)c1
13 µM |  | N#Cc1c(-c2cccc(C(F)(F)F)c2)nc(SCCC(=O)Oc2ccccc2)[nH]c1=O
32 µM |  | Cc1ccccc1-c1nc(SCc2ccccc2Br)[nH]c(=O)c1C#N

IC50 (read-out: IC50) | IC50 (read-out: pIC50 (converted)) | SMILES
10 µM |  | CC(C)c1ccc(-c2nc(SCc3cccc([N+](=O)[O-])c3)[nH]c(=O)c2C#N)cc1
29 µM |  | Cc1cccc(CSc2nc(-c3cc(Cl)cc(Cl)c3)c(C#N)c(=O)[nH]2)c1
11 µM |  | Cc1cccc(CSc2nc(-c3ccc(Br)cc3)c(C#N)c(=O)[nH]2)c1
34 µM |  | COc1cc(CSc2nc(-c3ccc(Cl)cc3Cl)c(C#N)c(=O)[nH]2)cc(OC)c1
12 µM |  | COc1cc(CSc2nc(-c3ccccc3C(F)(F)F)c(C#N)c(=O)[nH]2)cc(OC)c1
8.6 µM |  | Cc1cccc(-c2nc(SCc3ccc(OC(F)(F)F)cc3)[nH]c(=O)c2C#N)c1
13 µM |  | COc1cc(CSc2nc(-c3ccc(Br)cc3)c(C#N)c(=O)[nH]2)cc(OC)c1
37 µM |  | Cc1ccccc1-c1nc(SCc2cccc([N+](=O)[O-])c2)[nH]c(=O)c1C#N
10 µM |  | N#Cc1c(-c2ccc(Br)cc2)nc(SCc2ccccc2Br)[nH]c1=O
14 µM |  | Cc1cccc(CSc2nc(-c3ccccc3C(F)(F)F)c(C#N)c(=O)[nH]2)c1
11 µM |  | COc1cc(CSc2nc(-c3cccc(C(F)(F)F)c3)c(C#N)c(=O)[nH]2)cc(OC)c1
12 µM |  | CCCCCSc1nc(-c2ccc(C(C)C)cc2)c(C#N)c(=O)[nH]1
12 µM |  | CCCCCSc1nc(-c2cccc(C(F)(F)F)c2)c(C#N)c(=O)[nH]1
18 µM |  | CCCCCSc1nc(-c2ccccc2C)c(C#N)c(=O)[nH]1
17 µM |  | CCCCCSc1nc(-c2ccc(Cl)cc2Cl)c(C#N)c(=O)[nH]1
14 µM |  | Cc1cccc(CSc2nc(-c3ccccc3C)c(C#N)c(=O)[nH]2)c1
12 µM |  | CCCCCSc1nc(-c2ccc(F)cc2F)c(C#N)c(=O)[nH]1
12 µM |  | N#Cc1c(-c2ccc(Cl)cc2Cl)nc(SCCCc2ccccc2)[nH]c1=O
11 µM |  | CCCCCSc1nc(-c2ccc(Br)cc2)c(C#N)c(=O)[nH]1
19 µM |  | COc1cc(CSc2nc(-c3ccc(F)cc3F)c(C#N)c(=O)[nH]2)cc(OC)c1
22 µM |  | Cc1cccc(CSc2nc(-c3cccc(C)c3)c(C#N)c(=O)[nH]2)c1
3.8 µM |  | CC(C)c1ccc(-c2nc(SCc3ccccc3Br)[nH]c(=O)c2C#N)cc1
18 µM |  | CCCCCSc1nc(-c2cccc(C)c2)c(C#N)c(=O)[nH]1
20 µM |  | CCCCCSc1nc(-c2ccccc2C(F)(F)F)c(C#N)c(=O)[nH]1
30 µM |  | N#Cc1c(-c2ccc(Br)cc2)nc(SCCC(=O)Oc2ccccc2)[nH]c1=O
